# According to patent US20070128589A1, “Substrates, sensors, and methods for assessing conditions in females” (priority 2005, published 2007):
# No end group written: not given here.
# Assays:
# [1] = tested on: Lactobacillus sp. protease; test: GFP-random amino acid sequence-polyhistidine peptide library screen, GFP-peptide released from beads by Lactobacillus supernatant; format: biochemical, Lactobacillus acidophilus; details: plate number 69, exposed to Lactobacillus, FIG. 9
# Description: (§1) The samples were then incubated with beads that bind the epitope tag (e.g., 10 μl of NTA-resin to bind a polyhistidine tag or 10 μl of methotrexate agarose to bind the FolA tag). The sample was then placed into a microtiter filtration plate and washed three times to remove the unbound proteins. The fluorescent signal of the third wash was measured in a fluorescent microplate reader at an excitation of 355 nm and an emission of 510 nm (for GFP). Alternatively, the HRP activity can be measured in a microplate colorimeter at 405 nm with H2O2 and ABTS substrate. This background reading from the third rinse can later be subtracted from the signal of the released GFP (or HRP) peptides by extracellular bacterial proteases. […]
# (§2) The plates can be filtered by centrifugation three times with PBS to remove unbound material and then the GFP-peptide-bound bead can be incubated with microbial extract for 20 min at 37° C. The sample can be filtered and the flow through fluorescence can be compared with the background from the prior wash. If the microbe has a protease that finds the ideal target, then the release of GFP fluorescence from the bead can be over 100 times greater than the background.
# (§3) Fluorescence can be measured on a Fluoroskan II instrument with an excitation filter centered at 380 nm and emission filter centered at 538 nm. […]
# Gardnerella vaginalis = test: GFP-random amino acid sequence-polyhistidine peptide library screen with Gardnerella extracts; format: biochemical; details: plate 76, FIG. 10
# Description: as §1, §2, §3
# HSV protein UL26 = HSV protein UL26 (Human herpesvirus 1, UniProt P10210); details: cited from earlier work
# HSV protein UL26, sequence (P10210 whole entry): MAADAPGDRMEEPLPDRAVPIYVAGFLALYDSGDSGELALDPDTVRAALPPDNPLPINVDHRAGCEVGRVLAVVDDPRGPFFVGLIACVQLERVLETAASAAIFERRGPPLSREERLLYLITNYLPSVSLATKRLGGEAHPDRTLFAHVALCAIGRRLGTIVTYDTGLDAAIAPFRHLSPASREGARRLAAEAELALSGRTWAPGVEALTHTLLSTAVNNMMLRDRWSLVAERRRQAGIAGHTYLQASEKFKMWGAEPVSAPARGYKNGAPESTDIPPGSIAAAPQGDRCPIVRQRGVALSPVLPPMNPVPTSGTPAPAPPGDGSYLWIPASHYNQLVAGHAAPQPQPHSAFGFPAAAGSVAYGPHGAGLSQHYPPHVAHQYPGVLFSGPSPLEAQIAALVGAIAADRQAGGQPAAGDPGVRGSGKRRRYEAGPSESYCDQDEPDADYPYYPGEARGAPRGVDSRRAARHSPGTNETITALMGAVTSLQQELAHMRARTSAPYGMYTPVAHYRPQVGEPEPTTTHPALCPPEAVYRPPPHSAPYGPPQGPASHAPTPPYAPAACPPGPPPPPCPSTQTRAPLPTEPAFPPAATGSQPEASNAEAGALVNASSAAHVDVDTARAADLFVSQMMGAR
# C. albicans = test: Identification of peptide targets for C. albicans; format: biochemical, Candida albicans
# Description: Clones of green fluorescent protein (GFP) tagged conjugates were used to identify targets in a high throughput screen. Each clone contained a plasmid harboring a gene that contains a polyhistidine tag (6 his), 30 random nucleotides (corresponding to 10 random amino acids), and green fluorescent protein (GFP). On the day before a screen, 864 glowing clones are grown up overnight at 37° C. in deep well microtiter plates (1 ml/well). In the morning, the cultures can be induced with 1 mM IPTG for 1 hour, the cells can be centrifuged for five minutes, and then the media can be decanted. Lysozyme (2 mg/ml) can be added and the cells can be flash frozen 3 times. The samples can be treated with 100 ul/well of DNAse I at 37° C. for 30 minutes to reduce the viscosity by digesting the DNA. An aliquot of the sample can then be transferred to a microtiter filter plate containing 10 μl of nickel-NTA resin. The pipeting of the reagents (IPTG, lysozyme, DNAse I, and beads) can be performed with a Tecan Genesis RSP 100 Robot with Gemini version 4.0 software.
# as §2
# (SEQ ID NO: 8), the sequence QKTTIKKLKH (H2) (SEQ ID NO: 9), the sequence KPKAFLKVGN (R8) (SEQ ID NO: 6), the sequence TPIQIHTILH (SEQ ID NO: 10), the sequence […] (SEQ ID NO: 11), the sequence […] (SEQ ID NO: 12), and the sequence […] (SEQ ID NO: 13).
# [2] = tested on: proteases produced by Trichomonas vaginalis; test: High throughput screening of GFP-random peptide fusion library with Trichomonas vaginalis cell-free growth medium; format: biochemical; details: 4,900 clones screened, LYI entamoeba medium
# Description: Peptide substrates for proteases produced by the vaginal pathogen Trichomonas vaginalis were also identified. This microbe was grown in LYI entamoeba medium overnight and the cell-free growth medium was used in the high throughput screening of 4,900 clones from a GFP-random peptide fusion library.
# Peptides 39H9 and 42D3 were altered to remove the lysine residues prior to peptide synthesis. The peptides were conjugated to HRP and affigel 10 beads and produced a visible color signal in five minutes at 650 nm when an aliquot of the protease-treated product was incubated with tetramethyl benzidine.
# [3] = tested on: C. albicans clinical isolates; details: for reaction with ten clinical C. albicans isolates (released HRP): HRP-peptide-Affigel conjugate, cell-free growth medium, ten minutes, FIG. 24; for sensitivity: all ten clinical isolates
# Description: For example, ten clinical C. albicans isolates kindly provided by Dr. Andrew Onderdonk (Brigham and Women's Hospital) were tested alongside a strain obtained from C. albicans ATCC. The yeast cells were grown in YCB-BSA (23.4 g yeast carbon base, 2 g yeast extract, 10 g dextrose, and 5 g of BSA per liter—adjusted to pH 5.0). An aliquot of the cell-free growth medium was mixed with an HRP-peptide-Affigel conjugate for ten minutes and the amount of released HRP was determined.
# [4] = tested on: Gardnerella vaginalis, Lactobacillus acidophilus, and Escherichia coli; test: HRP-peptide-Affigel conjugates: initial specificity study with other vaginal bacteria; format: biochemical
# Candida albicans = tested on: Candida albicans
# Description: For example, in one embodiment, the H2 peptide was conjugated to Blue dye #1 as a reporter on the C-terminal end. The N-terminal end was conjugated to Affigel 10 beads (BioRad). The beads were exposed to an aliquot of overnight grown Candida albicans for a period of 24 hours at 37° C. A control set of beads was also exposed to culture medium. Blue dye released from the beads by the action of Candida albicans was collected on a membrane to produce a clear signal.
# Food grade sensors can be used in consumer products. […] The resulting beads were incubated with growth medium (1:2 BHI/PBS) alone (control) and an overnight grow-up of Candida albicans for 24 hours at 37° C. […] The preferred ion exchange membranes to collect the free dye are SB6407 and Biodyne B (Pall Life Sciences, Ann Arbor, Mich. and positively charged PVDF (Millipore)). These membranes have strong positively-charged quaternary ammonium groups.
# In one example, dye-conjugated Affigel 10 beads were exposed to Candida albicans supernatant (20 μl of 1:10 dilution of beads) or a medium control (1:2 BHI/PBS) for 24 hours. The color was collected with a positively charged membrane (SB6407) in with the bead reaction.
Substance,identified as peptide target for C. albicans (C. albicans),identified as peptide detecting Trichomonas vaginalis [2],also measured
69/B8 (PFINETYAKFC; Peptide Substrate of Gardnerella vaginalis),,,signal strength (GFP-peptide released from the beads) [1]: 62.8
76/C3 (ITTTSSKHEHC; Peptide Substrate of Lactobacillus acidophilus),,,fluorescence after exposure to Gardnerella extracts (Gardnerella vaginalis): strong fluorescence
ASNAEAGALVNASSAAHVDV,,,cleavage site (HSV protein UL26): between the 12th amino acid (alanine) and the 13th amino acid (serine); specificity of UL26 for the sequence (HSV protein UL26): strong specificity
INLSKKQIYP (Peptide Substrate of Candida spp.) [peptide target for C. albicans],peptide targets for C. albicans,,
"KNPKLQDHYI (Peptide Substrate of Trichomonas vaginalis) [44B5/T7, peptide detecting Trichomonas vaginalis]",,detect Trichomonas vaginalis,
"KPKAFLKVGN (also: histidine tag) [R8, C. albicans peptide; used as H2N-…-OH with histidine tag for immobilization]",peptide targets for C. albicans,,reaction with ten clinical C. albicans isolates (released HRP) [3]: reacted strongly; sensitivity [3]: 100%; clipping by other vaginal bacteria [4]: not significantly clipped
KPSIKPTPPY (Peptide Substrate of Candida spp.) [peptide target for C. albicans],peptide targets for C. albicans,,
"LHNYVLLRNIL (Peptide Substrate of Trichomonas vaginalis) [38H8/T7, peptide detecting Trichomonas vaginalis]",,detect Trichomonas vaginalis,
LYPSQNPVIK (Peptide Substrate of Candida spp.) [peptide target for C. albicans],peptide targets for C. albicans,,
NITKKSTKII (Peptide Substrate of Candida spp.) [peptide target for C. albicans],peptide targets for C. albicans,,
"NKTNKTKHAY (Peptide Substrate of Trichomonas vaginalis) [42H8/T7, peptide detecting Trichomonas vaginalis]",,detect Trichomonas vaginalis,
"NNPLPKIQKN (Peptide Substrate of Trichomonas vaginalis) [38H9/T7, peptide detecting Trichomonas vaginalis]",,detect Trichomonas vaginalis,
"QINKALKQPK (Peptide Substrate of Trichomonas vaginalis) [41El 1/T7, peptide detecting Trichomonas vaginalis]",,detect Trichomonas vaginalis,
"QIPKSLHPIT (Peptide Substrate of Trichomonas vaginalis) [42D3/T7, peptide detecting Trichomonas vaginalis]",,detect Trichomonas vaginalis,
QKTTIKKLKH (also: HRP or Blue dye #1 Affigel conjugate) [H2],peptide targets for C. albicans,,"blue dye released from beads / peptide hydrolysis, color collected on membrane (Candida albicans; overnight grown Candida albicans, 24 hours at 37° C., no signal from control medium): highly visible blue color; reaction with ten clinical C. albicans isolates (released HRP) [3]: reacted strongly; sensitivity [3]: 100%; clipping by other vaginal bacteria [4]: not significantly clipped"
QRTTIRRLRH [modified H2 peptide],,,time to visible blue dye release (Candida albicans; collection of color in a feminine pad): approximately 3 hours
"SKQQDIIKKY (Peptide Substrate of Trichomonas vaginalis) [44E6/T7, peptide detecting Trichomonas vaginalis]",,detect Trichomonas vaginalis,
